Reference: US20190282558A1, “Methods of Treating Zika Virus Infection” (Emergent Virology LLC, priority 2016, published 2019)
Where two headings read alike, the source gives them in different places.

Columns and labels:
Type in all cases: cell-based
[1] = In vitro cell cytotoxicity (CellTiter-Glo) in Vero cells; settings: African green monkey, 3-5 days, max concentration 500 or 1000 μM, * = average of two values
[2] = test system: Zika virus, FSS 13025 strain (ZIKV, Cambodia 2010); assay: Yield reduction assay followed by plaque assay in Vero cells, ZIKV Cambodia 2010; settings: for IC50: Zika virus, 96 h, read-out: ZIKV, Cambodian 2010 IC50; for IC50 (summary in words): summary of Table 3
Description: (§1) The iminosugar compounds set forth in Table 4, below, were evaluated for antiviral activity against Zika virus, FSS 13025 strain (ZIKV, Cambodia 2010) and PR ABC strain (ZIKV, PR2015) in an yield reduction assay followed by a plaque assay.
In the yield reduction assay, Vero cells were seeded in 24-well plates and incubated overnight. The next day, serial dilutions of a given compound were prepared at 300 μM, 100 μM, 30 μM, 10 μM, and 3.0 μM. Growth medium was removed from the cells and the serial dilutions of the given compound were added in duplicate for one hour. Zika virus, FSS 13025 strain (ZIKV, Cambodia 2010) was added at a multiplicity of infection (MOI) of 0.01 for one hour. Growth medium was added to 1 mL and the cells were incubated for 4 days. Thereafter, cell supernatants were harvested, cleared of cell debris by centrifugation, and stored at −80° C. until further analysis for viral content in a plaque assay.
Plaque assays were performed by seeding Vero cells in 24-well plates and allowing the cells to adhere overnight. The next day each of the harvested supernatants from the yield-reduction assay were serially diluted 10-fold, growth medium was removed from the cells, and the adhered cells were infected with the dilutions of the supernatants for 1 h. Methylcellulose was added and the cells were incubated for 3 days. Plaques were visualized by staining the cell monolayer with crystal violet. Relative inhibition was calculated using IDBS XLFIT analysis program.
(§2) The duplicate titers for virus-only (vehicle control) were averaged and used as 0% inhibition. Efficacy data for the compounds were reported as the mean of the duplicates, including the standard deviation (SD) and coefficient of variation (% CV). FIGS. 2A, 2B, 3A, 3B, 4A, 4B, 5A, 5B, 6A, 6B, 7A, 7B, 8A, 8B, 9A, 9B, 10A, 10B, 11A, 11B, 12A, 12B, 13A, 13B, 14A, 14B, and 15 show the in vitro inhibitory effect of the iminosugar compounds against Zika virus, FSS 13025 strain, as set forth in Table 3 below.

[3] = test system: Zika virus, PR ABC strain (ZIKV, PR2015); assay: Yield reduction assay followed by plaque assay in Vero cells, ZIKV PR2015; settings: 120 h, read-out: ZIKV, PR2015 IC50
Description: as §1
In the yield reduction assay, Vero cells were seeded in 24-well plates and incubated overnight. The next day, serial dilutions of a given compound were prepared at 200 μM, 100 μM, 20 μM, 4 μM, 0.8 μM, 0.16 μM, 0.03 μM, and 0.01 μM. Growth medium was removed from the cells and the serial dilutions of the given compound were added in duplicate for one hour. Zika virus, PR ABC strain (ZIKV, PR2015) was added at a multiplicity of infection (MOI) of 0.01 for one hour. Growth medium was added to 1 mL and the cells were incubated for 5 days. Thereafter, cell supernatants were harvested, cleared of cell debris by centrifugation, and stored at −80° C. until further analysis for viral content in a plaque assay.
Plaque assays were performed by seeding Vero cells in 24-well plates and allowing the cells to adhere overnight. The next day each of the harvested supernatants from the yield-reduction assay were serially diluted 10-fold, growth medium was removed from the cells, and the adhered cells were infected with the dilutions of the supernatants for 1 h. The cells were incubated with 0.8% carboxymethyl cellulose (CMC) for 3 days. At the end of the incubation, CMC overlay was removed, and the cells were permeabilized with an 80%/20% (V/V) mixture of ethanol and methanol for 10 min at −20° C. Plaques were visualized by performing an immunostaining assay with monoclonal 4G2 (ATCC) which was detected by HRP-conjugated goat anti-mouse antibody and visualized using HRP-conjugated goat anti-mouse polyclonal antibodies. Relative inhibition was calculated using IDBS XLFIT analysis program.
as §2

[4] = Vero cells, MOI 0.01, 4 days, plaque assay of supernatants, * = average of multiple data points
[5] = Vero cells, MOI 0.01, 5 days, plaque assay with immunostaining, * = average of multiple data points

| IC50 [2, 4] [µM] | SMILES | CC50 [1] [µM] | also measured |
| --- | --- | --- | --- |
| 88.5 | O=[N+]([O-])c1cc(NCCCCCCN2C[C@H](O)[C@@H](O)[C@H](O)[C@H]2CO)ccc1-n1cnnn1 [Compound 14, (2R,3R,4R,5S)-2-(hydroxymethyl)-1-(6-((3-nitro-4-(1H-tetrazol-1-yl)phenyl)amino)hexyl)piperidine-3,4,5-triol] | > 1000 | – |
| 30.4 | [N-]=[N+]=Nc1ccc(NCCCCN2C[C@H](O)[C@@H](O)[C@H](O)[C@H]2CO)c([N+](=O)[O-])c1 [Compound 17, (2R,3R,4R,5S)-1-(4-((4-azido-2-nitrophenyl)amino)butyl)-2-(hydroxymethyl)piperidine-3,4,5-triol] | 350 | IC50 (summary in words) [2]: low micromolar activity |
| 140 | OC[C@@H]1[C@@H](O)[C@H](O)[C@@H](O)CN1CCCCCCNc1ccc(-n2ncnn2)cc1 [Compound 19, (2R,3R,4R,5S)-1-(6-((4-(2H-tetrazol-2-yl)phenyl)amino)hexyl)-2-(hydroxymethyl)piperidine-3,4,5-triol] | 953 | – |
| > 100 | CN(C)Cc1ccc([N+](=O)[O-])c(NCCCCCCN2C[C@H](O)[C@@H](O)[C@H](O)[C@H]2CO)c1 [Compound 16, (2R,3R,4R,5S)-1-(6-((5-((dimethylamino)methyl)-2-nitrophenyl)amino)hexyl)-2-(hydroxymethyl)piperidine-3,4,5-triol] | > 1000 | – |
| 47 | O=[N+]([O-])c1cc(-c2ccccn2)ccc1NCCCCCCN1C[C@H](O)[C@@H](O)[C@H](O)[C@H]1CO [Compound 22, (2R,3R,4R,5S)-2-(hydroxymethyl)-1-(6-((2-nitro-4-(pyridin-2-yl)phenyl)amino)hexyl)piperidine-3,4,5-triol] | 99.8 | IC50 (summary in words) [2]: low micromolar activity |
| > 100 | O=[N+]([O-])c1cc(-c2cccnn2)ccc1NCCCCCCN1C[C@H](O)[C@@H](O)[C@H](O)[C@H]1CO [Compound 23, (2R,3R,4R,5S)-2-(hydroxymethyl)-1-(6-((2-nitro-4-(pyridazin-3-yl)phenyl)amino)hexyl)piperidine-3,4,5-triol] | 5190 | – |
| 17 | O=[N+]([O-])c1cc(-c2cccnc2)ccc1NCCCCCCN1C[C@H](O)[C@@H](O)[C@H](O)[C@H]1CO [Compound 25, (2R,3R,4R,5S)-2-(hydroxymethyl)-1-(6-((2-nitro-4-(pyridin-3-yl)phenyl)amino)hexyl)piperidine-3,4,5-triol] | 101 | IC50 (summary in words) [2]: low micromolar activity |
| > 100 | O=[N+]([O-])c1cc(CN2CCCO2)ccc1NCCCCCCN1C[C@H](O)[C@@H](O)[C@H](O)[C@H]1CO [Compound 21, (2R,3R,4R,5S)-2-(hydroxymethyl)-1-(6-((4-(isoxazolidin-2-ylmethyl)-2-nitrophenyl)amino)hexyl)piperidine-3,4,5-triol] | 2130 | – |
| > 100 | O=[N+]([O-])c1cc(-c2ccncn2)ccc1NCCCCCCN1C[C@H](O)[C@@H](O)[C@H](O)[C@H]1CO [Compound 24, (2R,3R,4R,5S)-2-(hydroxymethyl)-1-(6-((2-nitro-4-(pyrimidin-4-yl)phenyl)amino)hexyl)piperidine-3,4,5-triol] | 816 | – |
| > 100 | O=[N+]([O-])c1cc(NCCCCCCN2C[C@H](O)[C@@H](O)[C@H](O)[C@H]2CO)ccc1-n1cccn1 [Compound 13, (2R,3R,4R,5S)-2-(hydroxymethyl)-1-(6-((3-nitro-4-(1H-pyrazol-1-yl)phenyl)amino)hexyl)piperidine-3,4,5-triol] | > 1000 | – |

Second part, the compound before the results:

| SMILES | IC50 [2, 4] [µM] | CC50 [1] [µM] | also measured |
| --- | --- | --- | --- |
| OC[C@@H]1[C@@H](O)[C@H](O)[C@@H](O)CN1CCCCCCNc1c(F)cc(F)cc1F [Compound 18, (2R,3R,4R,5S)-2-(hydroxymethyl)-1-(6-((2,4,6-trifluorophenyl)amino)hexyl)piperidine-3,4,5-triol trifluoroacetic acid] | – | 413 | IC50 ([2]; Vero): > 100 µM |
| O=[N+]([O-])c1ccc(-n2cnnn2)cc1NCCCCCCN1C[C@H](O)[C@@H](O)[C@H](O)[C@H]1CO [Compound 9, (2R,3R,4R,5S)-2-(hydroxymethyl)-1-(6-((2-nitro-5-(1H-tetrazol-1-yl)phenyl)amino)hexyl)piperidine-3,4,5-triol] | > 100 | > 1000 | – |
| OC[C@@H]1[C@@H](O)[C@H](O)[C@@H](O)CN1CCCCCCNc1ncc2[nH]cnc2n1 [Compound 20, (2R,3R,4R,5S)-1-(6-((7H-purin-2-yl)amino)hexyl)-2-(hydroxymethyl)piperidine-3,4,5-triol] | – | 832 | IC50 [3, 5]: > 100 µM |
| O=[N+]([O-])c1cc(-n2nccn2)ccc1NCCCCCCN1C[C@H](O)[C@@H](O)[C@H](O)[C@H]1CO [Compound 3, (2R,3R,4R,5S)-2-(hydroxymethyl)-1-(6-((2-nitro-4-(2H-1,2,3-triazol-2-yl)phenyl)amino)hexyl)piperidine-3,4,5-triol] | 106 | 245 | – |
| O=[N+]([O-])c1ccc(N2CCNCC2)cc1NCCCCCCN1C[C@H](O)[C@@H](O)[C@H](O)[C@H]1CO [Compound 10, (2R,3R,4R,5S)-2-(hydroxymethyl)-1-(6-((2-nitro-5-(piperazin-1-yl)phenyl)amino)hexyl)piperidine-3,4,5-triol] | > 100 | > 1000 | – |
| CCCCN1C[C@H](O)[C@@H](O)[C@H](O)[C@H]1CO [UV-1, (2R,3R,4R,5S)-1-butyl-2-(hydroxymethyl)piperidine-3,4,5-triol] | – | – | IC50 [3, 5]: 3 µM |
| O=[N+]([O-])c1cc(-n2ncnn2)ccc1NCCCCCCN1C[C@H](O)[C@@H](O)[C@H](O)[C@H]1CO [Compound 6, (2R,3R,4R,5S)-2-(hydroxymethyl)-1-(6-((2-nitro-4-(2H-tetrazol-2-yl)phenyl)amino)hexyl)piperidine-3,4,5-triol] | – | 953 | – |
| CCCCCCCCCN1C[C@H](O)[C@@H](O)[C@H](O)[C@H]1CO [UV-2, (2R,3R,4R,5S)-2-(hydroxymethyl)-1-nonylpiperidine-3,4,5-triol] | – | – | IC50 ([3]; Vero): 95 µM |
| O=[N+]([O-])c1cc(-c2ncccn2)ccc1NCCCCCCN1C[C@H](O)[C@@H](O)[C@H](O)[C@H]1CO [Compound 7, (2R,3R,4R,5S)-2-(hydroxymethyl)-1-(6-((2-nitro-4-(pyrimidin-2-yl)phenyl)amino)hexyl)piperidine-3,4,5-triol] | 18.9 | > 1000 | IC50 (summary in words) [2]: low micromolar activity |
| O=[N+]([O-])c1cc(-n2cnnn2)ccc1NCCCCCCN1C[C@H](O)[C@@H](O)[C@H](O)[C@H]1CO [Compound 5, (2R,3R,4R,5S)-2-(hydroxymethyl)-1-(6-((2-nitro-4-(1H-tetrazol-1-yl)phenyl)amino)hexyl)piperidine-3,4,5-triol] | 69.3 | > 1000 | – |
| N/C(=N/O)c1ccc(NCCCCCCN2C[C@H](O)[C@@H](O)[C@H](O)[C@H]2CO)c([N+](=O)[O-])c1 [Compound 4, (E)-N′-hydroxy-3-nitro-4-((6-((2R,3R,4R,5S)-3,4,5-trihydroxy-2-(hydroxymethyl)piperidin-1-yl)hexyl)amino)benzimidamide] | 77.1 | > 1000 | – |
| CCCOCCCCCCN1C[C@H](O)[C@@H](O)[C@H](O)[C@H]1CO [UV-3, (2R,3R,4R,5S)-2-(hydroxymethyl)-1-(6-propoxyhexyl)piperidine-3,4,5-triol] | – | – | IC50 [3, 5]: > 100 µM |
